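96-well plates; 48 h exposure; 5 concentrations. Endpoints by linear interpolation between flanking doses. Not reached: highest tested concentration assigned. GI50 = concentration required for 50% inhibition of growth.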 Calls of active or inactive are those of the source. Rule as the data show it: active = GI50 up to about 1.1 µM and inactive = higher.
Key:
Assay in all cases: NCI-60 cell line screen, 48 h
A549 = test system: A549
RPMI-8226 = test system: RPMI-8226
786-0 = test system: 786-0
SK-MEL-5 = test system: SK-MEL-5
COLO 205 = test system: COLO 205
CAKI-1 = test system: CAKI-1
PC-3 = test system: PC-3
UO-31 = test system: UO-31
KM12 = test system: KM12
NCI/ADR-RES = test system: NCI/ADR-RES
HCC 2998 = test system: HCC 2998
NCI-H522 = test system: NCI-H522
SK-OV-3 = test system: SK-OV-3
ACHN = test system: ACHN
NCI-H460 = test system: NCI-H460
MDA-N = test system: MDA-N
T47D = test system: T47D
SF-268 = test system: SF-268
EKVX = test system: EKVX
RXF 393 = test system: RXF 393

Measured: GI50

Cc1cccc(/C=N/NC(=S)NC(C)(C)C)n1
inactive: A549 > 100 µM | RPMI-8226 32.9 µM | 786-0 76.9 µM | SK-MEL-5 56.1 µM | COLO 205 6.14 µM | CAKI-1 > 100 µM | PC-3 23.7 µM | UO-31 62.4 µM | KM12 > 100 µM | NCI/ADR-RES 33.7 µM | HCC 2998 56.1 µM | NCI-H522 14.5 µM | SK-OV-3 > 100 µM | ACHN 35.6 µM | NCI-H460 85.1 µM | MDA-N > 100 µM | T47D 6.24 µM | SF-268 41 µM

Cc1ccc(/C=C2/NC(=S)SC2=O)cc1
inactive: A549 36.7 µM | EKVX 28.4 µM | 786-0 34.6 µM | SK-MEL-5 32.1 µM | COLO 205 35.7 µM | CAKI-1 19.6 µM | PC-3 38.4 µM | UO-31 24.5 µM | KM12 33.3 µM | NCI/ADR-RES 22.5 µM | HCC 2998 31.2 µM | SK-OV-3 88.1 µM | ACHN 33 µM | NCI-H460 22.4 µM | T47D 31.3 µM

O=C1NC(O)c2ccccc2O1 (centres undefined)
inactive: A549 > 100 µM | EKVX > 100 µM | 786-0 > 100 µM | RXF 393 > 100 µM | SK-MEL-5 > 100 µM | COLO 205 > 100 µM | CAKI-1 > 100 µM | PC-3 > 100 µM | UO-31 > 100 µM | KM12 > 100 µM | NCI/ADR-RES > 100 µM | HCC 2998 > 100 µM | NCI-H522 > 100 µM | SK-OV-3 > 100 µM | ACHN > 100 µM | NCI-H460 > 100 µM | MDA-N > 100 µM | SF-268 > 100 µM

O=C(CC(C(=O)c1ccc(F)cc1)c1ccsc1)c1cccs1 (centres undefined)
inactive: A549 74.8 µM | RPMI-8226 37.6 µM | EKVX 68.9 µM | 786-0 > 100 µM | SK-MEL-5 62.4 µM | COLO 205 > 100 µM | CAKI-1 > 100 µM | PC-3 57.9 µM | UO-31 25.2 µM | KM12 44.8 µM | NCI/ADR-RES 96.4 µM | HCC 2998 > 100 µM | SK-OV-3 > 100 µM | ACHN > 100 µM | NCI-H460 69.7 µM | MDA-N 79.8 µM | T47D 26.7 µM | SF-268 > 100 µM

CC(C)(C)c1cc(-c2cc(C(C)(C)C)[nH]n2)[nH]n1
inactive: A549 > 100 µM | RPMI-8226 > 100 µM | EKVX > 100 µM | 786-0 > 100 µM | RXF 393 > 100 µM | SK-MEL-5 > 100 µM | COLO 205 > 100 µM | CAKI-1 > 100 µM | PC-3 > 100 µM | UO-31 > 100 µM | HCC 2998 > 100 µM | NCI-H522 > 100 µM | SK-OV-3 > 100 µM | ACHN > 100 µM | NCI-H460 > 100 µM | MDA-N > 100 µM | T47D > 100 µM | SF-268 > 100 µM

COc1cc2c(cc1C)NC(=O)/C2=C\c1cccnc1
inactive: A549 21.3 µM | RPMI-8226 26.9 µM | EKVX 19.8 µM | 786-0 25 µM | RXF 393 17.4 µM | SK-MEL-5 15.1 µM | COLO 205 16.5 µM | CAKI-1 15.4 µM | PC-3 30.1 µM | UO-31 15.6 µM | KM12 13.6 µM | NCI/ADR-RES 14.1 µM | HCC 2998 10 µM | NCI-H522 20.4 µM | SK-OV-3 16.3 µM | ACHN 26.9 µM | NCI-H460 22.6 µM | T47D 3.91 µM | SF-268 19.4 µM

C=C(C)C1CC/C(C)=C/CC[C@]2(C)O[C@H]2CC/C(COC(C)=O)=C\[C@@H]1O (some centres undefined)
inactive: A549 > 50 µM | RPMI-8226 > 50 µM | EKVX > 50 µM | 786-0 > 50 µM | RXF 393 > 50 µM | SK-MEL-5 > 50 µM | COLO 205 17.9 µM | CAKI-1 > 50 µM | PC-3 22.4 µM | UO-31 > 50 µM | KM12 > 50 µM | NCI/ADR-RES 20.7 µM | HCC 2998 > 50 µM | NCI-H522 19.2 µM | SK-OV-3 31.1 µM | ACHN > 50 µM | NCI-H460 25.1 µM | T47D > 50 µM | SF-268 > 50 µM

Cc1ccc(O)cc1.Cc1cccc(O)c1.Cc1ccccc1O [CRESOL]
inactive: A549 > 100 µM | RPMI-8226 > 100 µM | EKVX > 100 µM | 786-0 > 100 µM | RXF 393 > 100 µM | SK-MEL-5 > 100 µM | COLO 205 > 100 µM | CAKI-1 > 100 µM | PC-3 73.3 µM | UO-31 > 100 µM | KM12 > 100 µM | NCI/ADR-RES > 100 µM | HCC 2998 > 100 µM | NCI-H522 8.34 µM | SK-OV-3 > 100 µM | ACHN > 100 µM | NCI-H460 > 100 µM | T47D > 100 µM | SF-268 > 100 µM
